# Data from ChEMBL document CHEMBL3525928 (Drug Metab Dispos, 2011).
# Tests used:
# Hepatocyte [1] = assay: Drug uptake in sandwich-cultured human hepatocytes lot Hu4165 at 0.05 uM at 37 degC for 5 mins by scintillation spectroscopy in presence of 100 uM BSP A OATP and […] inhibitor (reference value: 100 +/- 3.1 to 100 +/- 7.0%); assay type: ADME, cell-based; set-up: interact cpd dose 100 uM
# Hepatocyte [2] = assay: Uptake clearance in sandwich-cultured human hepatocytes lot Hu4165 […] measured per mg of protein at 0.05 to 1 uM at 37 degC after 0.5 to 2 mins by scintillation spectroscopy in presence of 100 uM rifamycin SV; assay type: ADME, cell-based
# Hepatocyte [3] = details: human, hepatocytes, 5 min, 0.05 µM
# Hepatocyte [4] = assay: Drug uptake in sandwich-cultured human hepatocytes measured per mg of protein at 0.05 uM at 37 degC after 5 mins by scintillation spectroscopy; assay type: ADME, cell-based
# Hepatocyte [5] = assay: Drug uptake in sandwich-cultured human hepatocytes lot Hu4165 at 0.05 uM at 37 degC for 5 mins by scintillation spectroscopy in presence of 500 uM digoxin (1% DMSO) cardiac glycosides (reference value: 100 +/- 3.1 to 100 +/- 7.0%); assay type: ADME, cell-based
# [6] = Drug excretion in urine (unknown origin); assay type: ADME, tissue-based; details: human, read-out: Drug excretion
# Hepatocyte [7] = details: human, hepatocytes, 5 min, 0.05 µM; remark: listed apart in the source
# Hepatocyte [8] = details: human, hepatocytes, 5 min, 0.05 µM; remark: listed apart in the source
# Hepatocyte [9] = assay: Drug uptake in sandwich-cultured human hepatocytes lot Hu4165 at 0.05 uM at 37 degC for 5 mins by scintillation spectroscopy in presence of 100 uM digoxin cardiac glycosides (reference value: 100 +/- 3.1 to 100 +/- 7.0%); assay type: ADME, cell-based
# Hepatocyte [10] = details: human, hepatocytes, 5 min, 0.05 µM; remark: listed apart in the source
# Hepatocyte [11] = details: human, hepatocytes, 5 min, 0.05 µM; remark: listed apart in the source
# Hepatocyte [12] = assay: Drug uptake in sandwich-cultured human hepatocytes at 0.05 uM at 37 degC by scintillation spectroscopy; assay type: ADME, cell-based
# Hepatocyte [13] = details: human, hepatocytes, 5 min, 0.05 µM; remark: listed apart in the source
# Hepatocyte [14] = assay: Uptake clearance in sandwich-cultured human hepatocytes lot Hu4165 […] measured per mg of protein at 0.05 to 1 uM at 37 degC on day 5 by scintillation spectroscopy; assay type: ADME, cell-based
# Hepatocyte [15] = assay: Drug uptake in sandwich-cultured human hepatocytes measured per mg of protein at 0.05 to 10 uM at 37 degC by Michaelis-Menten kinetics/scintillation spectroscopy; assay type: ADME, cell-based
# Hepatocyte [16] = details: human, hepatocytes, 5 min, 0.05 µM; remark: listed apart in the source
# Hepatocyte [17] = details: human, hepatocytes, 5 min, 0.05 µM; remark: listed apart in the source
# Hepatocyte [18] = assay: Drug uptake in sandwich-cultured human hepatocytes lot Hu4165 at 0.05 uM at 37 degC for 5 mins by scintillation spectroscopy in presence of 50 uM FCCP mitochondrial uncouplers (reference value: 100 +/- 3.1 to 100 +/- 7.0%); assay type: ADME, cell-based; set-up: interact cpd dose 50 uM
# Hepatocyte [19] = details: human, hepatocytes, 1 µM
# [20] = Drug excretion in bile (unknown origin); assay type: ADME, tissue-based; details: human, read-out: Drug excretion
# [21] = Drug uptake in rat hepatocytes; assay type: ADME, cell-based, Hepatocyte
# Hepatocyte [22] = details: human, hepatocytes, 5 min, 0.05 µM; remark: listed apart in the source
# Hepatocyte [23] = details: human, hepatocytes, 5 min, 0.05 µM; remark: listed apart in the source
# Hepatocyte [24] = assay: Uptake clearance in sandwich-cultured human hepatocytes measured per mg of protein at 0.05 to 10 uM at 37 degC by scintillation spectroscopy; assay type: ADME, cell-based
# Hepatocyte [25] = details: human, hepatocytes, 5 min, 0.05 µM; remark: listed apart in the source
# Hepatocyte [26] = details: human, hepatocytes, 5 min, 0.05 µM; remark: listed apart in the source
# Hepatocyte [27] = details: human, hepatocytes, 5 min, 0.05 µM; remark: listed apart in the source
# [28] = Drug uptake in sandwich-cultured human hepatocytes at 0.05 to 10 uM at 37 degC by Michaelis-Menten kinetics/scintillation spectroscopy; assay type: ADME, cell-based, Hepatocyte
# Hepatocyte [29] = details: human, hepatocytes, 1 µM; remark: listed apart in the source
# Hepatocyte [30] = assay: Drug uptake in sandwich-cultured human hepatocytes measured per mg of protein at 0.05 uM at 4 degC after 5 mins by scintillation spectroscopy; assay type: ADME, cell-based
# Hepatocyte [31] = details: human, hepatocytes, 5 min, 0.05 µM; remark: listed apart in the source
# Hepatocyte [32] = assay: Drug uptake in sandwich-cultured human hepatocytes lot Hu4165 at 0.05 uM at 37 degC for 5 mins by scintillation spectroscopy in presence of 100 uM rifampicin OATP substrate/inhibitor (reference value: 100 +/- 3.1 to 100 +/- 7.0%); assay type: ADME, cell-based; set-up: interact cpd dose 100 uM
# OATP1B3 [33] = target: T1, OATP1B3 (Homo sapiens, UniProt Q9NPD5); assay: Drug uptake ratio assessed as enzyme-mediated uptake in HEK293 cells expressing human OATP1B3 at 10 uM at 37 degC for 3 mins by liquid scintillation spectroscopy relative to wild type; assay type: ADME, cell-based
# T1 sequence (Q9NPD5 whole entry): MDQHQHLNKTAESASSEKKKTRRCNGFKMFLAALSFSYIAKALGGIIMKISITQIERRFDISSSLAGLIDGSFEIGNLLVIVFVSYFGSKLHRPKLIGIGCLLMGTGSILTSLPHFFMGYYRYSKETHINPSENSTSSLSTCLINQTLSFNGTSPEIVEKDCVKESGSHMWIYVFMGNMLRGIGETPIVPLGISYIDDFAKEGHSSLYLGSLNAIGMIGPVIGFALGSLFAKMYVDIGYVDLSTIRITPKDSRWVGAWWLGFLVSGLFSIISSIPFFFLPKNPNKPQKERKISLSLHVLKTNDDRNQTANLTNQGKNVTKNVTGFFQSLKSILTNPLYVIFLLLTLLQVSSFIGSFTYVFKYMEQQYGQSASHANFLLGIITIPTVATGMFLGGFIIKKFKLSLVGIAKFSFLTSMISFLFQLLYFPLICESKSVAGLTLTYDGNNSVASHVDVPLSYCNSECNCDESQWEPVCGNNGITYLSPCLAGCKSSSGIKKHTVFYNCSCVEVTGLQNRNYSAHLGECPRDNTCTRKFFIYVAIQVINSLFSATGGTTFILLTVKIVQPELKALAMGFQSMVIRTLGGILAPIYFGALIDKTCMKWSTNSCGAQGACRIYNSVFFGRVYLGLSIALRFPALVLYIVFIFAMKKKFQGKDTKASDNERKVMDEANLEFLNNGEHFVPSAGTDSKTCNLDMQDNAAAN
# OATP1B3 [34] = target: T1, OATP1B3; assay: Drug uptake ratio assessed as enzyme-mediated uptake in HEK293 cells expressing human OATP1B3 at 1 uM at 37 degC for 3 mins by liquid scintillation spectroscopy relative to wild type; assay type: ADME, cell-based
# OATP1B1 [35] = target: T2, OATP1B1 (Homo sapiens, UniProt Q9Y6L6); assay: Drug uptake ratio assessed as enzyme-mediated uptake in HEK293 cells expressing human OATP1B1 at 10 uM at 37 degC for 3 mins by liquid scintillation spectroscopy relative to wild type; assay type: ADME, cell-based
# T2 sequence (Q9Y6L6 whole entry): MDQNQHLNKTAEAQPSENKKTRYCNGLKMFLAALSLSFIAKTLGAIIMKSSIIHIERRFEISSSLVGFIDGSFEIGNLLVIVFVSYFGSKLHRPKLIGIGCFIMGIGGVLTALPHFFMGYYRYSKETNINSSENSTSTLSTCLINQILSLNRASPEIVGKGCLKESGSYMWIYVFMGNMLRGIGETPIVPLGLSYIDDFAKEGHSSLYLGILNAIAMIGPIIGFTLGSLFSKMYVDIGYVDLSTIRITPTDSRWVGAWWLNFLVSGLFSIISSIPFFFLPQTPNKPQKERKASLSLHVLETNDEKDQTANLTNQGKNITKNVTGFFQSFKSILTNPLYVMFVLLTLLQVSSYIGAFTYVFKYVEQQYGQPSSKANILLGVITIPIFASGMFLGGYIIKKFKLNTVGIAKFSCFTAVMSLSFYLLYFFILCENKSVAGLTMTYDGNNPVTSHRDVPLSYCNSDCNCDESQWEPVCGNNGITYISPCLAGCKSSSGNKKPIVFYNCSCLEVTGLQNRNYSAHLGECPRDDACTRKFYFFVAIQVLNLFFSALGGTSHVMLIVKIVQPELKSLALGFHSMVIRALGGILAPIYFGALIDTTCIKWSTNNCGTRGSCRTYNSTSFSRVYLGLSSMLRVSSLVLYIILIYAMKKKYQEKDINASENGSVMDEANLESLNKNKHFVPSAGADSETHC
# OATP1B1 [36] = target: T2, OATP1B1; assay: Drug uptake ratio assessed as enzyme-mediated uptake in HEK293 cells expressing human OATP1B1 at 1 uM at 37 degC for 3 mins by liquid scintillation spectroscopy relative to wild type; assay type: ADME, cell-based
# OATP1B3 [37] = target: T1, OATP1B3; assay: Drug uptake ratio assessed as enzyme-mediated uptake in HEK293 cells expressing human OATP1B3 at 1 uM at 37 degC for 3 mins cells pretreated with sodium butyrate by liquid scintillation spectroscopy relative to wild type; assay type: ADME, cell-based
# OATP1B3 [38] = target: T1, OATP1B3; assay: Drug uptake ratio assessed as enzyme-mediated uptake in HEK293 cells expressing human OATP1B3 at 10 uM at 37 degC for 3 mins cells pretreated with sodium butyrate by liquid scintillation spectroscopy relative to wild type; assay type: ADME, cell-based
compound,measurement,setting,value
C[C@H]1O[C@@H](O[C@H]2[C@@H](O)C[C@H](O[C@H]3[C@@H](O)C[C@H](O[C@H]4CC[C@@]5(C)[C@H](CC[C@@H]6[C@@H]5C[C@@H](O)[C@]5(C)[C@@H](C7=CC(=O)OC7)CC[C@]65O)C4)O[C@@H]3C)O[C@@H]2C)C[C@H](O)[C@@H]1O [DIGOXIN],Drug uptake,Hepatocyte [1],113%
same,CLup,Hepatocyte [2],4.53 µL/min/g
same,Drug uptake,Hepatocyte [3],50.5%
same,Drug uptake,Hepatocyte [4],153 fmol/min
same,Drug uptake,Hepatocyte [5],55.5%
same,dose excreted,[6],50%
same,Drug uptake,Hepatocyte [7],87.4%
same,Drug uptake,Hepatocyte [8],55.4%
same,Drug uptake,Hepatocyte [9],48.9%
same,Drug uptake,Hepatocyte [10],89.9%
same,Drug uptake,Hepatocyte [11],114%
same,Drug uptake,Hepatocyte [12],Active
same,Drug uptake,Hepatocyte [13],45%
same,CLup,Hepatocyte [14],3.6 µL/min/g
same,Vmax,Hepatocyte [15],4.49 pmol/min
same,Drug uptake,Hepatocyte [16],158%
same,Drug uptake,Hepatocyte [17],63.1%
same,Drug uptake,Hepatocyte [18],63.8%
same,CLup,Hepatocyte [19],1.88 µL/min/g
same,dose excreted,[20],30%
same,Km,[21],0.18 µM
same,Drug uptake,Hepatocyte [22],110%
same,Drug uptake,Hepatocyte [23],90.5%
same,CLup,Hepatocyte [24],1.88 µL/min/g
same,Drug uptake,Hepatocyte [25],115%
same,Drug uptake,Hepatocyte [26],67.5%
same,Drug uptake,Hepatocyte [27],79.2%
same,Km at up to 10 µM,[28],2.39 µM
same,CLup,Hepatocyte [29],4.06 µL/min/g
same,Drug uptake,Hepatocyte [30],1.33 fmol/min
same,Drug uptake,Hepatocyte [31],163%
same,Drug uptake,Hepatocyte [32],120%
Cc1ncc2n1-c1ccc(Cl)cc1C(c1ccccc1F)=NC2 [MIDAZOLAM],"uptake ratio at 0.05 h, 10 µM",OATP1B3 [33],1.7
same,"uptake ratio at 0.05 h, 1 µM",OATP1B3 [34],1.7
same,"uptake ratio at 0.05 h, 10 µM",OATP1B1 [35],0.92
same,"uptake ratio at 0.05 h, 1 µM",OATP1B1 [36],0.92
same,"uptake ratio at 0.05 h, 1 µM",OATP1B3 [37],2.1
same,"uptake ratio at 0.05 h, 10 µM",OATP1B3 [38],1.9
